Structures are written as SMILES. In brackets after ≈: the same amount, converted by molar mass.

Nine molecules from US20090275594A1, “3-HYDRAZONE PIPERAZINYL RIFAMYCIN DERIVATIVES USEFUL AS ANTIMICROBIAL AGENTS” (priority 2008, published 2009) can be followed below.

Holding throughout (assay type): cell-based
Common to all, as to conditions: cation adjusted Mueller-Hinton broth, 35° C., 16-20 hours

Experiment [1] deals with Methicillin-resistant Staphylococcus aureus OC 3726 COL. Nature of the experiment: In vitro antibacterial activity, microdilution broth MIC (NCCLS M7-A4), strain C. As for the experimental part:
(§1) Minimum inhibitory concentration (MIC) is an indicator of in vitro antibacterial activity. […] The in vitro antimicrobial activity of representative compounds of the present invention was determined by the microdilution broth method following the test method from the National Committee for Clinical Laboratory Standards (NCCLS). This method is described in the NCCLS Document M7-A4, Vol. 17, No. 2, “Methods for Dilution Antimicrobial Susceptibility Test for Bacteria that Grow Aerobically—Fourth Edition”, which is incorporated herein by reference.
(§2) In this method two-fold serial dilutions of drug in cation adjusted Mueller-Hinton broth were added to wells in microdilution trays. The test organisms were prepared by adjusting the turbidity of actively growing broth cultures so that the final concentration of test organism after it is added to the wells was approximately 5×10^4 CFU/well. Following inoculation of the microdilution trays, the trays were incubated at 35° C. for 16-20 hours and then read. The amount of growth in the wells containing the test compound was compared with the amount of growth in the growth-control wells (no test compound) used in each tray.

The test system of experiment [2] is Staphylococcus aureus ATCC 29213. Nature of the experiment: In vitro antibacterial activity, microdilution broth MIC (NCCLS M7-A4), strain B. As for the experimental part:
as §1, §2

Experiment [3] deals with Enterococcus faecium OC 3312 vancomycin-resistant. Nature of the experiment: In vitro antibacterial activity, microdilution broth MIC (NCCLS M7-A4), strain A. As for the experimental part:
as §1, §2

In experiment [4] the test system is Staphylococcus aureus OC4172. Nature of the experiment: In vitro antibacterial activity, microdilution broth MIC (NCCLS M7-A4), strain D. The protocol: as §1, §2

As for `COC1C=COC2(C)Oc3c(C)c(O)c4c(O)c(c(C=NN5CCN(Cc6cc(-c7cccnc7)no6)CC5)c(O)c4c3C2=O)NC(=O)C(C)=CC=CC(C)C(O)C(C)C(O)C(C)C(OC(C)=O)C1C` (stereo not drawn) [Compound 14], the “MIC (μg/mL) C Strain” value in experiment [1] is “≦0.03 μg/mL”. In experiment [2], the “MIC (μg/mL) B Strain” value is given as “≦0.03 μg/mL”. The “MIC (μg/mL) A Strain” value in experiment [3] was found to be 0.06 µg/mL (≈ 0.062 µM). Moreover, the “MIC (μg/mL) D Strain” value in experiment [4] is “≦0.03 μg/mL”.

With `COC1C=COC2(C)Oc3c(C)c(O)c4c(O)c(c(C=NN5CCN(Cc6cc(-c7ccc(Cl)cc7Cl)no6)CC5)c(O)c4c3C2=O)NC(=O)C(C)=CC=CC(C)C(O)C(C)C(O)C(C)C(OC(C)=O)C1C` (stereo not drawn) [Compound 4], the “MIC (μg/mL) C Strain” value in experiment [1] was determined as 0.5 µg/mL (≈ 0.483 µM). The “MIC (μg/mL) B Strain” value in experiment [2] stood at 1 µg/mL (≈ 0.966 µM). The “MIC (μg/mL) A Strain” value in experiment [3] worked out at 1 µg/mL (≈ 0.966 µM). The “MIC (μg/mL) D Strain” value in experiment [4] was 1 µg/mL (≈ 0.966 µM).

For `COC(=O)c1c(-c2ccc(Cl)cc2)noc1CN1CCN(N=Cc2c3c(O)c4c(O)c(C)c5c(c4c2O)C(=O)C(C)(OC=CC(OC)C(C)C(OC(C)=O)C(C)C(O)C(C)C(O)C(C)C=CC=C(C)C(=O)N3)O5)CC1` (stereo not drawn) [Compound 18], the “MIC (μg/mL) C Strain” value in experiment [1] was 0.5 µg/mL (≈ 0.472 µM). In experiment [2], the “MIC (μg/mL) B Strain” value turned out to be 1 µg/mL (≈ 0.945 µM). Moreover, the “MIC (μg/mL) A Strain” value in experiment [3] was 1 µg/mL (≈ 0.945 µM). Besides, the “MIC (μg/mL) D Strain” value in experiment [4] came out at 0.5 µg/mL (≈ 0.472 µM).

On to `COC1C=COC2(C)Oc3c(C)c(O)c4c(O)c(c(C=NN5CCN(Cc6cc(-c7ccc(F)cc7)no6)CC5)c(O)c4c3C2=O)NC(=O)C(C)=CC=CC(C)C(O)C(C)C(O)C(C)C(OC(C)=O)C1C` (stereo not drawn) [Compound 5], for which the “MIC (μg/mL) C Strain” value in experiment [1] worked out at 0.12 µg/mL (≈ 0.122 µM). The “MIC (μg/mL) B Strain” value in experiment [2] came out at 0.25 µg/mL (≈ 0.254 µM). For the same molecule, the “MIC (μg/mL) A Strain” value in experiment [3] was 0.25 µg/mL (≈ 0.254 µM). For the same molecule, the “MIC (μg/mL) D Strain” value in experiment [4] stood at 0.12 µg/mL (≈ 0.122 µM).

Take `COC1C=COC2(C)Oc3c(C)c(O)c4c(O)c(c(C=NN5CCN(Cc6cc(-c7ccccc7)no6)CC5)c(O)c4c3C2=O)NC(=O)C(C)=CC=CC(C)C(O)C(C)C(O)C(C)C(OC(C)=O)C1C` (stereo not drawn) [Compound 1]: the “MIC (μg/mL) C Strain” value in experiment [1] was 0.12 µg/mL (≈ 0.124 µM). Further, the “MIC (μg/mL) B Strain” value in experiment [2] was 0.12 µg/mL (≈ 0.124 µM). The “MIC (μg/mL) A Strain” value in experiment [3] came to 0.25 µg/mL (≈ 0.259 µM). Further, in experiment [4], the “MIC (μg/mL) D Strain” value is 0.12 µg/mL (≈ 0.124 µM).

Take `COC1C=COC2(C)Oc3c(C)c(O)c4c(O)c(c(C=NN5CCN(Cc6cc(-c7ccc(OCCCN(C)C)cc7)no6)CC5)c(O)c4c3C2=O)NC(=O)C(C)=CC=CC(C)C(O)C(C)C(O)C(C)C(OC(C)=O)C1C` (stereo not drawn) [Compound 17]: the “MIC (μg/mL) C Strain” value in experiment [1] came to 0.12 µg/mL (≈ 0.112 µM). Besides, the “MIC (μg/mL) B Strain” value in experiment [2] came out at 0.12 µg/mL (≈ 0.112 µM). The “MIC (μg/mL) A Strain” value in experiment [3] stood at 0.25 µg/mL (≈ 0.234 µM). Further, in experiment [4], the “MIC (μg/mL) D Strain” value was found to be 0.12 µg/mL (≈ 0.112 µM).

As for `COC1C=COC2(C)Oc3c(C)c(O)c4c(O)c(c(C=NN5CCN(Cc6noc(-c7ccc(Cl)cc7)n6)CC5)c(O)c4c3C2=O)NC(=O)C(C)=CC=CC(C)C(O)C(C)C(O)C(C)C(OC(C)=O)C1C` (stereo not drawn) [Compound 25], the “MIC (μg/mL) C Strain” value in experiment [1] is 0.25 µg/mL (≈ 0.25 µM). In addition, in experiment [2], the “MIC (μg/mL) B Strain” value was found to be 0.5 µg/mL (≈ 0.499 µM). Besides, in experiment [3], the “MIC (μg/mL) A Strain” value came out at 0.5 µg/mL (≈ 0.499 µM). Moreover, in experiment [4], the “MIC (μg/mL) D Strain” value amounted to 0.25 µg/mL (≈ 0.25 µM).

Turning to `COC1C=COC2(C)Oc3c(C)c(O)c4c(O)c(c(C=NN5CCN(Cc6cn(-c7ccc(Cl)cc7)nn6)CC5)c(O)c4c3C2=O)NC(=O)C(C)=CC=CC(C)C(O)C(C)C(O)C(C)C(OC(C)=O)C1C` (stereo not drawn) [Compound 24], in experiment [1], the “MIC (μg/mL) C Strain” value is given as “≦0.12 μg/mL”. In addition, in experiment [2], the “MIC (μg/mL) B Strain” value turned out to be 0.12 µg/mL (≈ 0.12 µM). Also, the “MIC (μg/mL) A Strain” value in experiment [3] came out at 0.12 µg/mL (≈ 0.12 µM). For the same molecule, the “MIC (μg/mL) D Strain” value in experiment [4] was 0.06 µg/mL (≈ 0.06 µM).

Consider `COC1C=COC2(C)Oc3c(C)c(O)c4c(O)c(c(C=NN5CCN(Cc6cc(-c7ccc(C(F)(F)F)cc7)no6)CC5)c(O)c4c3C2=O)NC(=O)C(C)=CC=CC(C)C(O)C(C)C(O)C(C)C(OC(C)=O)C1C` (stereo not drawn) [Compound 7], for which the “MIC (μg/mL) C Strain” value in experiment [1] was 0.25 µg/mL (≈ 0.242 µM). In addition, the “MIC (μg/mL) B Strain” value in experiment [2] is 0.5 µg/mL (≈ 0.484 µM). In experiment [3], the “MIC (μg/mL) A Strain” value stood at 1 µg/mL (≈ 0.967 µM). In experiment [4], the “MIC (μg/mL) D Strain” value is 0.12 µg/mL (≈ 0.116 µM).
